From patent US9737607B2, “Polymer, and pharmaceutical composition employing the same” (INDUSTRIAL TECHNOLOGY RESEARCH INSTITUTE, priority 2014, dated 2017) come the findings set out here.

In data set [1] the test system is Sal. Typhimurium TA100 strain. Put plainly: Ames test, TA100. The following applies: without S9, positive control 100 μL/plate. As to the method: (§1) The Ames test was carried out using Sal. Typhimurium TA98 strain and Sal. Typhimurium TA100 strain without an enzyme for activating metabolism of drugs (S9).
(§2) The Ames test was carried out using Sal. Typhimurium TA98 strain and Sal. Typhimurium TA100 strain with an enzyme for activating metabolism of drugs (S9). DMSO (100 μL/plate) was used as negative control, and (+)Benzo[α]pyrene (100 μL/plate) was used as positive control.
(The Ames test detects mutagens through reverse mutation in bacteria.)

Data set [2] has as its system Sal. Typhimurium TA98 strain. As to the kind of experiment: Ames test, TA98. The following applies: without S9, positive control 100 μL/plate. As to the method: as §1, §2

As to `Nc1ccc([N+](=O)[O-])cc1N` [NOPD, 4-nitro-o-phenylenediamine], in data set [1], the “TA100 (CFU/plate)” value is reported as 1019 CFU/plate. In data set [2], the “TA98 (CFU/plate)” value was determined as 1200 CFU/plate.
